# Values quoted from earlier work as cited in patent US20180228146A1, “INSECTICIDAL COMPOSITION AND METHOD” (priority 2014, published 2018).
smiles,measurement,setting,value
"CCOP(=S)(OCC)Oc1nc(Cl)c(Cl)cc1Cl [chlorpyrifos, O,O-diethyl O-3,5,6-trichloro-2-pyridyl phosphorothioate]",Henry's law constant at 25° C.,25° C.,6.76 × 10^−1 Pa m^3 mol^−1
same,Vapour pressure at 25° C.,25° C.,2.7 mPa
same,Solubility Acetone (25° C.),"acetone, 25° C.",6500 g/kg
same,Solubility Benzene (25° C.),"benzene, 25° C.",7900 g/kg
same,Solubility Carbon disulfide (25° C.),"carbon disulfide, 25° C.",5900 g/kg
same,Solubility Chloroform (25° C.),"chloroform, 25° C.",6300 g/kg
same,Solubility Diethyl ether (25° C.),"diethyl ether, 25° C.",5100 g/kg
same,Stability,"hydrolysis, with pH",Rate of hydrolysis increases
same,Solubility Iso-octanol (25° C.),"iso-octanol, 25° C.",790 g/kg
same,Solubility Methanol (25° C.),"methanol, 25° C.",450 g/kg
same,"DT50 (phosphate buffer, pH 7, 15° C.)","phosphate buffer, pH 7, 15° C.",100 d
same,Solubility water (25° C.),"water, 25° C.",1.4 µg/mL
same,"DT50 (water, pH 8, 25° C.)","water, pH 8, 25° C.",1.55 d
same,Solubility Xylene (25° C.),"xylene, 25° C.",5000 g/kg
